pIC50: −log10 of the molar value.

For the data set, the target named is T1, hERG (Homo sapiens, UniProt Q12809).
T1 construct: host or cells: HEK293
Nature of the data set: hERG assay (automated patch clamp, QPatch HT). Type of data set: cell-based. Particulars: human, HEK293 cells stably expressing hERG, * = accurate hERG measurement may be limited by compound solubility. On the procedure: Cell lines and cell culture: The HEK293 cell line stably expressing the hERG ion channel was provided from Charles River laboratories. Cells were maintained in tissue culture incubators per Charles River Laboratories SOP. Stocks were maintained in cryogenic storage. HEK293 cells were stably transfected with hERG cDNA.
Automated Patch Clamp Procedures: In preparation for a recording session, intracellular solution was loaded into the intracellular compartments of the QPlate and cell suspension was pipetted into the extracellular compartments. After establishment of a whole-cell configuration, membrane currents were recorded using up to 48 parallel patch clamp amplifiers in the QPatch HT® system. The current records were sampled at 2000 Hz and low-pass Bessel filtered at 400 Hz.
Valid whole-cell recordings met the following criteria: • 1. Membrane resistance ≥200 MΩ. • 2. Leak current 25% channel current or subtracted.
hERG Test Procedures: Onset and block of hERG current was measured using a stimulus voltage pattern consisting of a 500 ms prepulse to −40 mV (leakage subtraction), a 2-second activating pulse to +40 mV followed by a 2-second test pulse to −40 mV. The pulse pattern was repeated continuously at 10 s intervals from a holding potential of −80 mV. Peak tail current was measured during the −40 mV test pulse. Leakage current was calculated from the current amplitude evoked by the −40 mV prepulse and subtracted from the total membrane current record.
Data Analysis: Data acquisition and analysis were performed using the QPatch Assay Software (Sophion Bioscience A/S, Denmark). Steady state was defined by the limiting constant rate of change with time (linear time dependence). The steady state before and after test article application were used to calculate the percentage of current inhibited at each concentration. Run down, a time-dependent reduction of current amplitude, may be compensated for in the QPatch Assay Software using standard system tools. Concentration-response data was fit to an equation of the following form: […]
Where [Test] is the concentration of test compound, IC50 is the concentration of the test compound producing half-maximal inhibition, N is the Hill coefficient and % Block is the percentage of current inhibited at each concentration of the test article. Nonlinear least squares fits will be solved with the Solver add-in for Excel 2000 or later (Microsoft, Redmond, WA).
A general note: hERG is a cardiac potassium channel; its block is linked to QT prolongation.

T1 sequence (Q12809 whole entry): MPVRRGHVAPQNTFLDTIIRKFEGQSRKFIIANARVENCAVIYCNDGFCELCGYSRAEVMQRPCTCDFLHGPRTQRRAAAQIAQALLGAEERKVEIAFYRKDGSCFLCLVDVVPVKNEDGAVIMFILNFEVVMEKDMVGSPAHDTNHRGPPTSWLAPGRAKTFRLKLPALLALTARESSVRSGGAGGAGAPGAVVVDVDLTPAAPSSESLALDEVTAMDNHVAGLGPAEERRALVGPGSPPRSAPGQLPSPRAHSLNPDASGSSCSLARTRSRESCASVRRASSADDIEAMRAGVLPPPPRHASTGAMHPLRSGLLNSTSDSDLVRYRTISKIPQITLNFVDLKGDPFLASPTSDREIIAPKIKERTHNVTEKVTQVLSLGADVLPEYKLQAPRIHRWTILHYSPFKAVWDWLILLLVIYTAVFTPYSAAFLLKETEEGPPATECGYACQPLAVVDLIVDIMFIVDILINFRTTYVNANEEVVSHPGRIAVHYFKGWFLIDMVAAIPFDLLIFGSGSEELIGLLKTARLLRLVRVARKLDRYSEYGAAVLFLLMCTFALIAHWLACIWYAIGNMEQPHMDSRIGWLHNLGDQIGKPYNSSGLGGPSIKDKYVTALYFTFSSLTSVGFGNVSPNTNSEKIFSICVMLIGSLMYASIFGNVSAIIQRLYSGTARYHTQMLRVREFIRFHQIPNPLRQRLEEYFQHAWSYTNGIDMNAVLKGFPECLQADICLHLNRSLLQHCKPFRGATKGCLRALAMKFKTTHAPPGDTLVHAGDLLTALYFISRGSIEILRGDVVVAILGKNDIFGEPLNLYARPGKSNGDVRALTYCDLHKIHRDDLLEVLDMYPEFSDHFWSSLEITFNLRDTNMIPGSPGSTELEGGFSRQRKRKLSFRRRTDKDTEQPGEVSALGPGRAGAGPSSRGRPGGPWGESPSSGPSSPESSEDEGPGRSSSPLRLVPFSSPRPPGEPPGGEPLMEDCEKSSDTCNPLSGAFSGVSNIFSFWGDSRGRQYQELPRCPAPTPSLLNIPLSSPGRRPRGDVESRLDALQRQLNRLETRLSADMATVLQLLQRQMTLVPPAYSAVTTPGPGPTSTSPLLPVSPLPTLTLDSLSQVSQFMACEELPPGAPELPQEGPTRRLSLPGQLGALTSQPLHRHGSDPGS

Regarding `Nc1nc2cnc(C(=O)N3CC4(CC4)C[C@@H]4Oc5cc(C(F)(F)F)ccc5[C@@H]43)cc2n2cncc12` [Ff-648, (4-aminoimidazo[1,5-a]pyrido[3,4-e]pyrazin-8-yl)((4aS,9bS)-7-(trifluoromethyl)-4a,9b-dihydro-2H-spiro[benzofuro[3,2-b]pyridine-3,1′-cyclopropan]-1(4H)-yl)methanone], the pIC50 (in general, the negative decadic logarithm of the IC50, by convention in mol/L) was 4.52.

The record behind these values is patent US12448388B2, “PRMT5 inhibitors and uses thereof” (Gilead Sciences, Inc., priority 2023, dated 2025).
